“Also recorded” adds a separate entry of the source.
What was measured:
bull sperm = experiment: Bovine sperm post-thaw motility (IVOS); type: cell-based, Holstein bulls; settings: MTG 0, 100, 500, 1000 or 5000 μM in Triladyl egg yolk extender containing glycerol; 0 and 3 hr
Procedure: Semen was collected via an artificial vagina from 6 different Holstein bulls over 3 different days. The bulls were selected such that three produce sperm with good consistent freezing quality and three produce sperm that respond to cryopreservation with poorer consistency. Antibiotics were added to the neat semen and initial volume and concentration were determined using a graduated cylinder and spectrophotometry. From each collection, 5 different 500 μL aliquots of semen were extended with 1.5 mL of Triladyl egg yolk extender (Minitube; Verona, Wis.) containing glycerol. Subsequently, 2 mL of the same extender containing no MTG, 200, 1000, 2000 or 10,000 μM MTG was added to the extended semen to yield the final concentrations for MTG of 0, 100, 500, 1000 or 5000 μM. […]
(§1) For the examination, 6 straws per treatment per collection were thawed in a 37° C. water bath for at least 60 sec. For each treatment within a collection, two pools of semen were created and analyzed by combining the contents of three straws. […] The percent of motile sperm was determined on 4 different fields within each of 2 separate chambers. For viability the sperm samples were diluted 1:100 in PBS and stained with SYBR 14 ([…]) and propidium iodide (12 μM About 10,000 cells were counted using the Partec Flomax Flow Cytometer (Ft. Collins, Colo.).

bovine sperm = experiment: Bovine sperm post-thaw viability (SYBR 14 / propidium iodide flow cytometry); type: cell-based, Holstein bulls
Procedure: Sperm from three collections from each of 6 different bulls were frozen in the presence of MTG at the concentrations indicated on the x-axes. For each collection, two sets of three straws each were created and analyzed twice for sperm viability. Differences in sperm cell viability among the treatments were determined using analysis of variance on arcsine transformed percents and preplanned comparisons to the control of no MTG using Dunnett's method. Panel A illustrates the mean and standard errors for the 6 bulls while panels B though G illustrate the percent of viable sperm for the individuals. […]
Semen was collected via an artificial vagina from 6 different Holstein bulls over 3 different days. […] Antibiotics were added to the neat semen and initial volume and concentration were determined using a graduated cylinder and spectrophotometry. […]
as §1

## OCC(O)CS (stereo not drawn) [MTG, monothioglycerol]
Bull sperm
  overall post-thaw motility of bull sperm: no ill effects
Bovine sperm; MTG 0, 100, 500, 1000 or 5000 μM in egg yolk extender containing glycerol, 6 bulls, FIG. 5
  post-thaw viability of bovine sperm: not negatively influenced; also recorded: enhances post-thaw viability
Bovine sperm; bovine sperm, 3 bulls with slight effect
  increase of viability: slight effect

Source: patent publication US8420307B2, “Sperm cryoprotective media” (The Jackson Laboratory, priority 2006, dated 2013)
